Assay [1] concerns NIH3T3 cells. How it is done:
Data points from the intracellular Ca^2+ measurements represent the total peak area of the Ca^2+ transients elicited, as determined by the FLWinLab software (Perkin-Elmer, Wellesley, Mass.). Data points represent the average of at least 3 measurements±standard deviation. The significance of the data points was determined using the students t-test and values were considered significant at p<0.05.
The effect of DGPP 8:0 on LPA-elicited responses was also examined in mammalian systems that endogenously express LPA receptors. NIH3T3 cells were screened by RT-PCR for the presence of mRNA for the Edg and PSP24 receptors.

Assay [2] has as its system NIH3T3 cells. Description: LPA-elicited proliferation of NIH3T3 cells (cell counting). It counts as cell-based. How it is done:
Proliferation of NIH3T3 cells was assessed by direct cell counting as previously described (Tigyi et al., 1999). NIH3T3 cells were plated in 24-well plates at a density of 10,000 cells/well, in DMEM containing 10% FBS. The following day, the cells were rinsed and serum starved in DMEM for 6 hr. Lipids were then added for 24 hr. Cell numbers were determined by counting in a Coulter counter (Coulter Electronics, Hialeah, Fla.).

In another assay the target is T1, human Edg-4 (Homo sapiens, UniProt Q9HBW0).
T1 construct: expressed in transfected cells
T1 sequence (Q9HBW0 whole entry): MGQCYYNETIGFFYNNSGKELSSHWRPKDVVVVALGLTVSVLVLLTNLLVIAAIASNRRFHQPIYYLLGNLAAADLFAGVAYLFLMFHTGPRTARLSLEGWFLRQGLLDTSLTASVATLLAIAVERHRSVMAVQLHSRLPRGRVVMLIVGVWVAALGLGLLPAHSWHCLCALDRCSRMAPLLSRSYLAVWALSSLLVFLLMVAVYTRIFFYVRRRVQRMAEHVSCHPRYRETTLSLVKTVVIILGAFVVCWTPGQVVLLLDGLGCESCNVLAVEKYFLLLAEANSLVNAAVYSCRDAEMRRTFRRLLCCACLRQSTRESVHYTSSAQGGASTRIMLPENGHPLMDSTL
Description: Ca2+ responses (Fura-2) in RH7777 cells expressing Edg-4 (stable or transient). It counts as cell-based. The settings on record: 100 nM LPA 18:1 and 1 μM DGPP 8:0. From the text: RH7777 cells, stably expressing human Edg-4, were kindly provided by Dr. Kevin Lynch (University of Virginia, Charlottesville, Va.). Flag-tagged cDNA's encoding human Edg-4 and -7 inserted into the pCDNA3 expression plasmid (Invitrogen, Carlsbad, Calif.), were a generous gift from Dr. Junken Aoki (University of Tokyo, Tokyo, Japan). RH7777 and NIH3T3 cells were obtained from the American Type Culture Collection (Manassas, Va.). HEY cells were provided by Dr. Lisa Jennings (University of Tennessee, Memphis). All cell lines were maintained in Dulbecco's Modified Eagle's Medium (DMEM) containing 10% FBS and 2 mM glutamine. Oocytes were obtained from adult Xenopus laevis frogs as previously described (Tigyi et al., 1999).
(§1) RH7777 cells were transfected with the cDNA constructs encoding human Edg-2, Edg-4, or Edg-7 and then were subcloned into the pCDNA3 expression vector using the Cytofectene transfection reagent according to the manufacturers' protocol. Transfected cells were selected in DMEM containing 10% FBS and 1 mg/ml geneticin. Resistant cells were collected and subcloned by limiting dilution. The resulting clones were then screened using functional assays and RT-PCR analysis. Data are representative of three individual clones.
RH7777 cells were plated on polylysine-coated glass coverslips (Bellco, Vineland, N.J.) one day prior to transfection. The following day, cells were transfected overnight (16-18 hr) with 1 μg of plasmid DNA mixed with 6 μl of Cytofectene. The cells were then rinsed twice with DMEM and cultured in DMEM containing 10% FBS. The next day, the cells were rinsed with DMEM and serum was withdrawn for a minimum of 2 hr prior to monitoring intracellular Ca^2+.

Another assay has as its target PSP24 PLGFR (Xenopus laevis, UniProt P79945). Description: Xenopus oocyte assay: LPA-induced oscillatory chloride currents (two-electrode voltage clamp). It counts as cell-based. As for the experimental part:
Xenopus oocytes which endogenously express PSP24 PLGFR were used to screen the newly designed and synthesized compounds for their LPA inhibitory activity.
(§2) Oocytes were obtained from xylazine-anesthetized adult Xenopus laevis frogs (Carolina Scientific, Burlington, N.C.) under aseptic conditions and prepared for experiment. […] Oocytes were kept in Barth's solution in an incubator between 17-20° C. and were used for 2-7 days after isolation.
Electrophysiological recordings were carried out using a standard two-electrode voltage-clamp amplifier holding the membrane potential at −60 mV (GeneClamp 500, Axon Instruments, Calif.). […] Membrane currents were recorded with a NIC-310 digital oscilloscope (Nicolet, Madison, Wis.). Applications were made at intervals of 15 mins (minimum) to allow for the appropriate washout and recovery from desensitization.
as §2
Electrophysiological recordings were carried out using a standard two-electrode voltage-clamp amplifier holding the membrane potential at −60 mV (GeneClamp 500, Axon Instruments, CA). […] Membrane currents were recorded with a NIC-310 digital oscilloscope (Nicolet, Madison, Wis.). Applications were made at intervals of 15 mins (minimum) to allow for the appropriate washout and recovery from desensitization.

The next assay addresses T2, human Edg-7 (Homo sapiens, UniProt Q9UBY5).
T2 construct: Flag; expressed in transfected cells
T2 sequence (Q9UBY5 1-353): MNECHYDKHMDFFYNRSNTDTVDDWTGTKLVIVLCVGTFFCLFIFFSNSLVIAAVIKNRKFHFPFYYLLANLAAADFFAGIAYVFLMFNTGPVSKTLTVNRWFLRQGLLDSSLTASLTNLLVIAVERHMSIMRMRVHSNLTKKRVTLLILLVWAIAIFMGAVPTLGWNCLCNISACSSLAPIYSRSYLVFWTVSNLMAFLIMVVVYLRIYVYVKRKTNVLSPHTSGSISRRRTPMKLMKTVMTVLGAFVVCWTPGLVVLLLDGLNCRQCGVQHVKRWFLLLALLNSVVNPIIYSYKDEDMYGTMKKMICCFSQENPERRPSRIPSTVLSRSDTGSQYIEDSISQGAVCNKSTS
Description: Ca2+ responses (Fura-2) in RH7777 cells expressing Edg-7. Format: cell-based. As for the experimental part:
as §1

Another assay has as its target T3, human Edg-2 (Homo sapiens, UniProt Q92633).
T3 construct: expressed in transfected cells
Briefly: Ca2+ responses (Fura-2) in RH7777 cells expressing Edg-2. It counts as cell-based. How it is done: as §1

Another assay has as its system HEY ovarian cancer cells. Description: Ca2+ responses in HEY ovarian cancer cells. It counts as cell-based. The settings on record: 100 nM LPA 18:1 mixed with 1 μM lipid. An excerpt: Likewise, PA 8:0 inhibited the Ca^2+ response to 6% of control, whereas PA 18:1 had no effect. HEY express mRNA transcripts for Edg-1, -2, -5, -7 receptors (FIG. 34C).
Assay [3] concerns G-protein coupled receptors for acetycholine. The settings on record: oocytes injected with rat brain polyA+ mRNA. From the text: (§3) To show the specificity of DGPP 8:0 for the LPA receptors expressed in the oocyte, the expression of neurotransmitter receptors was induced by the injection of polyA+ mRNA from rat brain.
Assay [4] has as its system G-protein coupled receptors for serotonin. The settings on record: oocytes injected with rat brain polyA+ mRNA.
From the text: as §3

The mark [5] stands for this setting: 10-fold excess: 100 nM LPA 18:1 and 1 μM DGPP 8:0.
[6] abbreviates: LPA constant at its EC50 (250 nM LPA 18:1), read-out: IC50, inhibition of LPA-elicited Ca2+ responses.

Data on 1 compound can be found in patent US6875757B2, “LPA receptor agonists and antagonists and methods of use” (University of Tennessee Research Foundation, priority 2000, dated 2005).

PSP24 PLGFR, sequence (P79945 whole entry): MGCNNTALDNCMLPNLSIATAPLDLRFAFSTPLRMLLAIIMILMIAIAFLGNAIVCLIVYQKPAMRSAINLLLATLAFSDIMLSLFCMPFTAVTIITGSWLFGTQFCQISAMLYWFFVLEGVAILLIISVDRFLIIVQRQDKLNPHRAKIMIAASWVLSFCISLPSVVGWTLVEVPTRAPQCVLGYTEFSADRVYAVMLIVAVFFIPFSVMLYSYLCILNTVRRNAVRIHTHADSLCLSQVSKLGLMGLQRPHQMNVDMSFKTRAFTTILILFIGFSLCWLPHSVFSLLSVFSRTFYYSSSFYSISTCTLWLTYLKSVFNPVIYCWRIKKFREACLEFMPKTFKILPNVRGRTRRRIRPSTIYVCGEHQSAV
T3 sequence (Q92633 whole entry): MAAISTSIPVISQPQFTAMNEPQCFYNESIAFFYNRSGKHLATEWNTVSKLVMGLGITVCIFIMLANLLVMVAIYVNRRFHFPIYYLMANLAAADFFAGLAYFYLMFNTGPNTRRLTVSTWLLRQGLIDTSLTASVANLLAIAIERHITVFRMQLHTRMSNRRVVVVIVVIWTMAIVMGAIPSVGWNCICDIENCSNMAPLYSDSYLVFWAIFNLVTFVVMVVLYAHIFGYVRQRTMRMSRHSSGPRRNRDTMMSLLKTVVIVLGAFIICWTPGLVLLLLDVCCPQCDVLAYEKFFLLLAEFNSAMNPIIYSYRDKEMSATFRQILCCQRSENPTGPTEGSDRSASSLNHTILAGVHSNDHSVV

`CCCCCCCC(=O)OC[C@H](COP(=O)(O)OP(=O)(O)O)OC(=O)CCCCCCC` [DGPP 8:0, diacylglycerol pyrophosphate]: the “effect on LPA-elicited Ca2+ responses” value in the assay on NIH3T3 cells [1] (100 nM LPA in the presence of 10 μM DGPP 8:0) is “significantly inhibited”; on human Edg-4 (stable Edg-4), “unaffected”; on human Edg-4 (transient Edg-4) it was “not effected”; on human Edg-7 (setting [5]), “completely abolished”. In the assay with NIH3T3 cells [1] (100 nM S1P in the presence of 10 μM DGPP 8:0), the “effect on S1P-elicited Ca2+ response” value is recorded as “not effected”. In addition, the entries for the “inhibition of the Ca2+ responses” value with NIH3T3 cells [1] (100-fold excess over LPA) and against human Edg-7 (250 nM LPA 18:1 mixed with 500 nM lipid) were 40% and 50%, respectively. Further, in the assay with NIH3T3 cells [2] (5 μM LPA 18:1 mixed with 10 μM lipid, 24 hr), the “effect on LPA-induced proliferation” value is on record as “significantly inhibited”. Moreover, in the assay with NIH3T3 cells [2] (10 μM lipid, solvent (BSA) in place of LPA 18:1, 24 hr), the “effect on solvent-treated control cells” value is “had no effect”. Moreover, the “LPA response with compound applied extracellularly” value on PSP24 PLGFR (5 nM LPA 18:1 and 1 μM DGPP 8:0) is listed as “completely inhibited”. Also, the IC50 on PSP24 PLGFR (5 nM LPA 18:1 mixed with increasing DGPP 8:0, read-out: IC50, inhibition of Ca2+-mediated inward Cl- currents elicited by LPA) amounted to 96 ± 21 nM; on human Edg-7 (setting [6]) it was 285 ± 28 nM; on human Edg-2 (setting [6]) it was 11 ± 0.68 µM. Moreover, the “mechanism of action (shift of LPA 18:1 dose response curve)” value at PSP24 PLGFR (200 nM DGPP 8:0) is on record as “competitive”. For the same compound, the “reversibility of inhibition of LPA-induced chloride currents” value at PSP24 PLGFR (after washing the oocyte) is “reversible”. In addition, at PSP24 PLGFR (intracellular injection, estimated >300 nM, extracellular 5 nM LPA 18:1), the “LPA response after intracellular injection of compound” value is recorded as “elicited a response equal in size to that of the control”. Also, the “mechanism of inhibition (shift of LPA dose response curve)” value on human Edg-7 (constant DGPP 8:0, 250 nM) is recorded as “competitive”; on human Edg-2 (constant DGPP 8:0, 3 μM), “competitive”. For the same compound, the “Ca2+ response, % of control” value at human Edg-2 (250 nM LPA 18:1 mixed with 10 μM lipid) was 50 % of control. Moreover, the “inhibition of LPA-elicited Ca2+ responses” value at human Edg-2 (setting [5]) is “approximately 50%”. In addition, the “LPA-elicited Ca2+ response, % of control” value in the assay with HEY ovarian cancer cells is recorded as 12 % of control. Also, the “inhibition of carbachol-elicited responses” value in [3] was “did not inhibit”. In addition, the “inhibition of serotonin-elicited responses” value in assay [4] is listed as “did not inhibit”.
